The structures appear in SMILES notation. Several values for one entry are separate records, joined by “and”; a condition that tells them apart may be missing. Equal values may be shown once. Read-outs that look alike come from different tables or passages of the source. Marks after values point to notes of the source that are not given here.

For data set [1], the system named is TNF-α secretion from human whole blood. Briefly: Whole blood TNF-α secretion assay (LPS or SEB). The data set is classed as cell-based.
Data set [2] has as its system Hidradenitis suppurativa (HS). Conditions: two phase II studies, moderate HS; none of the patients in the placebo group; cited from earlier work.
Another data set concerns TNF-α. Briefly: LPS-induced TNF-α in ferrets after single oral administration. Conditions: oral 1 and 3 mg/kg; 1 hour after LPS (3 mg/kg ip).
The test system of data set [3] is conscious, unrestrained ferret. To be noted: in vivo, po, 1 mg/kg.
A short description of a further data set: Emesis study in ferrets. Conditions: ferret, in vivo, po.
Where [4] appears, read: Homo sapiens, 24 h, SEB 1 μg/mL, 24 hours, donor 1, read-out: Emax.
Setting [5] is: Homo sapiens, 48 h, SEB 1 μg/mL, 48 hours, donor 1, read-out: Emax.
The mark [6] stands for this setting: Homo sapiens, 48 h, SEB 1 μg/mL, 48 hours, donor 2, read-out: Emax.

A word on the EC50: it is the concentration giving half of the maximal effect. Consider `CCOc1cc([C@@H](CS(C)(=O)=O)N2C(=O)c3cccc(NC(C)=O)c3C2=O)ccc1OC` [Apremilast], for which the Emax in data set [1] (Homo sapiens, 24 h, LPS 1 μg/mL, 24 hours, donor 1, Emax defined as TNF-α level in un-stimulated wells, read-out: Emax) was 74%; in data set [1] (Homo sapiens, 24 h, LPS 1 μg/mL, 24 hours, donor 2, read-out: Emax), 79%; in data set [1] (setting [4]), 98%; in data set [1] (Homo sapiens, 24 h, SEB 1 μg/mL, 24 hours, donor 2, read-out: Emax), 65%; in data set [1] (Homo sapiens, 48 h, LPS 1 μg/mL, 48 hours, donor 1, read-out: Emax), 77%; in data set [1] (Homo sapiens, 48 h, LPS 1 μg/mL, 48 hours, donor 2, read-out: Emax), 78%. In addition, the Emax in data set [1] (setting [5]) worked out at 97%; in data set [1] (setting [6]), 80%. The EC50 in data set [1] (Homo sapiens, 24 h, LPS 1 μg/mL, 24 hours, donor 1, read-out: EC50) was found to be 210 nM; in data set [1] (Homo sapiens, 24 h, LPS 1 μg/mL, 24 hours, donor 2, read-out: EC50), 283 nM; in data set [1] (Homo sapiens, 24 h, SEB 1 μg/mL, 24 hours, donor 2, read-out: EC50) it was 620 nM; in data set [1] (Homo sapiens, 48 h, LPS 1 μg/mL, 48 hours, donor 1, read-out: EC50), 277 nM; in data set [1] (Homo sapiens, 48 h, LPS 1 μg/mL, 48 hours, donor 2, read-out: EC50), 364 nM; in data set [1] (Homo sapiens, 48 h, SEB 1 μg/mL, 48 hours, donor 1, read-out: EC50) it was 155 nM. Also, the EC50 was 573 nM in data set [1] (Homo sapiens, 48 h, SEB 1 μg/mL, 48 hours, donor 2, read-out: EC50); 287 nM and 0.132 µg/mL in data set [1] (Homo sapiens, mean of 8 determinations (LPS and SEB, 24 and 48 hours, 2 donors), read-out: Geometric mean of EC50 values across different assay parameters). Also, in data set [2], the “treated patients with a positive HS clinical response (HiSCR)” value was “more than 50%”.
Consider `O=C(Nc1c(Cl)c[n+]([O-])cc1Cl)c1ccc(OC(F)F)c(OCC2CC2)c1` [Roflumilast N-oxide], for which the Emax came to 72 in data set [1] (LPS 1 μg/mL, 24 hours, donor 1, Emax defined as TNF-α level in un-stimulated wells); 79 in data set [1] (LPS 1 μg/mL, 24 hours, donor 2); 75 in data set [1] (LPS 1 μg/mL, 48 hours, donor 1); 78 in data set [1] (LPS 1 μg/mL, 48 hours, donor 2); 97 in data set [1] (SEB 1 μg/mL, 24 hours, donor 1); 66 in data set [1] (SEB 1 μg/mL, 24 hours, donor 2). Further, the Emax is listed as 97 in data set [1] (SEB 1 μg/mL, 48 hours, donor 1) and 80 in data set [1] (SEB 1 μg/mL, 48 hours, donor 2). The EC50 in data set [1] (LPS 1 μg/mL, 24 hours, donor 1, read-out: EC50) is 23.4 nM; in data set [1] (LPS 1 μg/mL, 24 hours, donor 2, read-out: EC50) it was 24 nM; in data set [1] (LPS 1 μg/mL, 48 hours, donor 1, read-out: EC50), 38.6 nM; in data set [1] (LPS 1 μg/mL, 48 hours, donor 2, read-out: EC50) it was 35 nM; in data set [1] (SEB 1 μg/mL, 24 hours, donor 1, read-out: EC50), 8.69 nM; in data set [1] (SEB 1 μg/mL, 24 hours, donor 2, read-out: EC50), 35.6 nM. The EC50 in data set [1] (SEB 1 μg/mL, 48 hours, donor 1, read-out: EC50) was 4.77 nM; in data set [1] (SEB 1 μg/mL, 48 hours, donor 2, read-out: EC50), 33.4 nM; in data set [1] (mean of 8 determinations (LPS and SEB, 24 and 48 hours, 2 donors), read-out: Geometric mean of EC50 values across different assay parameters) it was 21 nM. Besides, the “Geometric mean of EC50 values across different assay parameters” value in data set [1] (mean of 8 determinations (LPS and SEB, 24 and 48 hours, 2 donors)) was determined as 8.80 ng/mL.
Usually NOAEL stands for the highest tested level that showed no adverse finding. `O=C(Nc1c(Cl)cncc1Cl)c1ccc(OC(F)F)c(OCC2CC2)c1` [Roflumilast]: the “increase of TNF-α levels observed at 1 hour” value with TNF-α is given as “attenuated in a dose-related manner”. Also, the Emetogenic properties result in data set [3] is on record as “absent”. Also, in the data set “Emesis study in ferrets”, the NOAEL at 3 h stood at 1 mg/kg.
`C[C@@H]1CCN(C(=O)CC#N)C[C@@H]1N(C)c1ncnc2[nH]ccc12` [Tofacitinib]: the Emax in data set [1] (setting [4]) is 98%; in data set [1] (setting [5]), 95%; in data set [1] (setting [6]), 102%; in data set [1] (SEB 1 μg/mL, 24 hours, donor 2), 100*. Besides, the “Effect on TNF-α secretion (in words)” value in data set [1] (LPS 1 μg/mL, 24 hours) was “Stimulation”; in data set [1] (LPS 1 μg/mL, 48 hours) it was “Stimulation”.

The record behind these values is US20250268876A1, “TREATMENT OF HIDRADENITIS SUPPURATIVA WITH ORISMILAST” (UNION THERAPEUTICS A/S, priority 2021, published 2025).
